Read-outs that look alike come from different tables or passages of the source.
What was measured:
human flk-1 = target: T1, human flk-1 (Homo sapiens, UniProt P35968); test: Biochemical FLK-1 assay (bio Flk), autophosphorylation ELISA
T1 construct: expressed in transfected cells; host or cells: NIH fibroblast line (Flk-1/NIH cells, clone 3)
Method: This assay evaluates flk-1 autophosphorylation activity in vitro using ELISA.
1. Seed cell into growth medium and grow for 2-3 days to 90-100% confluency at 37° C. and 5% C)2.
2. Remove the medium and wash the cells twice with PBS. Lyse with HNTG lysis buffer. Collect all lysates and vortex mix them for 20-30 seconds.
3. Remove insoluble material by centrifugation (5-10 min at about 10,000×g).
4. Determine the protein concentration using BCA kit.
5. Partition lysate into 1 mg aliquots, store at −80° C.
1. Coat Corning 96-well ELISA plates with 2 μg/well purified L4 (or E 38) in 100 μl of PBS. Store overnight at 4° C.
2. Remove unbound proteins from wells by inverting the plate to remove the liquid. Wash one time with dH2O pat plate on paper towel to remove excess liquid.
3. Block plates with 150 μl blocking buffer per well. Incubate for 45-60 minutes with shaking at 4° C.
4. Remove the blocking buffer and wash the ELISA plate three times with dH2O and one time with TBST. Pat plate on paper towel to remove excess liquid.
5. Dilute lysate in PBS to give final concentration of 50 μg/100 μl. Add 100 μl of diluted lysate to each well. Incubate with shaking at 4° C. overnight.
6. Remove unbound proteins from wells by inverting the plate. Wash as in step 4.
7. Add 80 μl of kinase buffer to wells (90 μl to negative control wells).
8. Dilute test compounds (normally 10-fold) into wells of a polypropylene plate containing 20% DMSO in TBS.
9. Add 10 μl of the diluted compounds to the ELISA wells containing immobilized flk-1 and shake. Control wells receive no compounds.
10. From stock 1 mM ATP, prepare 0.3 mM ATP solution in dH20 (alternatively, kinase buffer may be used).
11. Add 10 μl of 0.3 mM ATP to all wells except the negative controls. Incubate for 60 min. at room temperature with shaking.
12. After 1 hr stop the kinase reaction by adding 11 μl 200 mM EDTA. Shake for 1-2 min.
13. Wash the ELISA plate 4 times with dH2O and twice with TBST.
14. Add 100 μl of 1:5000 biotinylated 4G10:TBST to all wells. Incubate 45 min with shaking at room temperature.
15. While the above is incubating, add 50 μl of solutions A & B from the ABC kit to 10 ml of TBST. These solutions must be combined approximately 30 min prior to use.
16. Wash plates as in step 4.
17. Add 100 μl of the preformed A & B complex to all wells. Incubate 30 min with shaking at room temperature.
18. Wash plates as in step 4.
19. Add 100 μl turbo-TMB. Shake at room temperature for 10-15 min.
20. When the color in the positive control wells reaches an absorbance of about 0.35-0.4, stop the reaction with 100 μl of turbo-TMB stop solution.

src protein kinase = target: T2, src protein kinase (Gallus gallus, UniProt P00523); test: Biochemical src assay (bio SRC); details: for IC50: 50% inhibition of target PTK activity; for bio SRC, outcome of primary assay: key: DNH = did not hit in primary assay
T2 construct: made in house; host or cells: Schizosaccharomyces pombe strain SP200
Method: This assay is used to determine src protein kinase activity measuring phosphorylation of a biotinylated peptide as the readout.
a. Yeast transformed with src (Sugen, Inc., Redwood City, Calif.).
1. Coat ELISA plate with 0.5 μg/well anti-src mab in 100 μl of pH 9.6 sodium carbonate buffer; hold at 4° C. overnight.
2. Wash wells once with PBS.
3. Block plate with 0.15 ml 5% milk in PBS for 30 min. at room temperature.
4. Wash plate 5× with PBS.
5. Add 10 μg/well of src transformed yeast lysates diluted in Lysis Buffer (0.1 ml total volume per well). (Amount of lysate may vary between batches.) Shake plate for 20 minutes at room temperature.
1. 4G10 plate: coat 0.5 μg/well 4G10 in 100 μl PBS overnight at 4° C. and block with 150 μl of 5% milk in PBS for 30 minutes at room temperature.
1. Remove unbound proteins.from plates and wash plates 5× with PBS.
2. Add 0.08 ml Kinase Reaction Mixture per well (containing 10 μl of 10×-Kinase Buffer and 10 μM (final concentration) biotin-EEEYEEYEEEYEEEYEEEY per well diluted in water.
3. Add 10 μl of compound diluted in water containing 10% DMSO and pre-incubate for 15 minutes at room temperature.
4. Start kinase reaction by adding 10 μl/well of 0.05 mM ATP in water (5 μM ATP final).
5. Shake ELISA plate for 15 min. at room temperature.
6. Stop kinase reaction by adding 10 μl of 0.5 M EDTA per well.
7. Transfer 90 μl supernatant to a blocked 4G10 coated ELISA plate.
8. Incubate for 30 min. while shaking at room temperature.
9. Wash plate 5× with TBST.
10. Incubate with Vectastain ELITE ABC reagent (100 μl/well) for 30 min. at room temperature.
11. Wash the wells 5× with TBST.
12. Develop with Turbo TMB.

[1] = 50% inhibition of target PTK activity, read-out: bio Flk IC50

T1 sequence (P35968 20-1356): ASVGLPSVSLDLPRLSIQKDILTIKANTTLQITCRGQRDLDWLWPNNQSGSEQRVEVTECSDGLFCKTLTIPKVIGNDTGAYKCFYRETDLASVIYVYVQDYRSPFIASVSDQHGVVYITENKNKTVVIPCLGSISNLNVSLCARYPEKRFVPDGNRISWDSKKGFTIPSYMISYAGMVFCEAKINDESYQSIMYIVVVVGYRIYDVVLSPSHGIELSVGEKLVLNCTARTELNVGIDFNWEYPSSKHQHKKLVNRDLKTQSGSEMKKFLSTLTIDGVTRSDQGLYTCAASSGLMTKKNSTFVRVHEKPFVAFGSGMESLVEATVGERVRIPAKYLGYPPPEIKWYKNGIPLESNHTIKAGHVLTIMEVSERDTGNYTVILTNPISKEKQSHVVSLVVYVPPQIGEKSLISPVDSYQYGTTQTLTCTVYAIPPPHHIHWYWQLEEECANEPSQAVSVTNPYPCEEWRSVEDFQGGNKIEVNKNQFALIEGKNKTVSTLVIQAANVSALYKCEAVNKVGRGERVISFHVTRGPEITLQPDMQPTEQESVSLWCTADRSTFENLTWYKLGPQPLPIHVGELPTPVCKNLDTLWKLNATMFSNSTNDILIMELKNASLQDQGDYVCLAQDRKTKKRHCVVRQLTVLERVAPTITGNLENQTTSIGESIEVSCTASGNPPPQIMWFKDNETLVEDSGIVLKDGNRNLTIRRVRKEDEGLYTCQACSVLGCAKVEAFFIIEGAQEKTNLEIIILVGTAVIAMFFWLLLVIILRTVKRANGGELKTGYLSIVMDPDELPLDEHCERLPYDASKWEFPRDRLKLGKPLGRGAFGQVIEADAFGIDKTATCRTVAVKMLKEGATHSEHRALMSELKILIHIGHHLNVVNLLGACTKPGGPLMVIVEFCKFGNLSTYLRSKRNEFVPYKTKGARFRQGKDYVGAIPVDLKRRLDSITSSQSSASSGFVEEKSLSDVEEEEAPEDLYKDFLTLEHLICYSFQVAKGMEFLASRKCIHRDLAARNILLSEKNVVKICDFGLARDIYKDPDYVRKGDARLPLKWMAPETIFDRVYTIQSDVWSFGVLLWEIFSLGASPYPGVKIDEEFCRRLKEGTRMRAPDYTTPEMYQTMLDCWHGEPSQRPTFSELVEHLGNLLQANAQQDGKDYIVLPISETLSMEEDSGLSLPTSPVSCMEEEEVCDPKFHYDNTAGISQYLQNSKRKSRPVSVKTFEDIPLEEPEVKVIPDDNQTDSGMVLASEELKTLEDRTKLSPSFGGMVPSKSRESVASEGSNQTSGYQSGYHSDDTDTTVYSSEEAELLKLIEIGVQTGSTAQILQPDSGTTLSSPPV

SMILES	IC50 (human flk-1; [1]) [µM]	bio SRC, outcome of primary assay (src protein kinase)	IC50 (human flk-1) [µM]	IC50 (src protein kinase) [µM]
CC1C/C(=C2/C(=O)Nc3ccccc32)c2ccccc21 (centres unmarked) [Compound 1, 3-(3-methylindan-1-ylidene)-1,3-dihydroindol-2-one]	18.4	DNH		
Cc1cccc2c1CC/C2=C1/C(=O)Nc2ccccc21 [Compound 2, 3-(4-Methylindan-1-ylidene)-1,3-dihydroindol-2-one]	8.2	DNH		
COc1ccc2c(c1)CC/C2=C1/C(=O)Nc2ccccc21 [Compound 3, 3-(5-Methoxyindan-1-ylidene)-1,3-dihydroindol-2-one]		DNH	2.6	
O=C1Nc2ccccc2/C1=C1\CCc2cc(Cl)ccc21 [Compound 7, 3-(5-Chloroindan-1-ylidene)-1,3-dihydroindol-2-one]	7.1			> 100
O=C1Nc2ccccc2/C1=C1\CCc2cc(N3CCCCC3)ccc21 [Compound 8, 3-(5-Piperidin-1-yl-indan-1-ylidene)-1,3-dihydroindol-2-one]	4.3			
COc1cc2c(cc1OC)/C(=C1\C(=O)Nc3ccccc31)CC2 [Compound 12, 3-(5,6-Dimethoxyindan-1-ylidene)-1,3-dihydroindol-2-one]	> 25			> 25

Second part, the compound after the results:

IC50 (human flk-1; [1]) [µM]	bio SRC, outcome of primary assay (src protein kinase)	IC50 (human flk-1) [µM]	IC50 (src protein kinase) [µM]	SMILES
3.1			> 100	CN(C)c1ccc2c(c1)CC/C2=C1/C(=O)Nc2ccccc21 [Compound 5, 3-(5-Dimethylaminoindan-1-ylidene)-1,3-dihydroindol-2-one]
2.9				O=C1Nc2ccccc2/C1=C1\CCc2cc(Br)ccc21 [Compound 9, 3-(5-Bromoindan-1-ylidene)-1,3-dihydroindol-2-one]
1.4			> 100	O=C1Nc2ccccc2/C1=C1\CCc2ccccc21 [Compound 10, 3-Indan-1-ylidene-1,3-dihydroindol-2-one]
0.02				COc1ccc2c(c1)C(CC(=O)O)C/C2=C1/C(=O)Nc2ccccc21 (centres unmarked) [Compound 11, [6-Methoxy-3-(2-oxo-1,2-dihydroindol-3-ylidene)-indan-1-yl]acetic Acid]

From patent US6642251B1, “Geometrically restricted 2-indolinone derivatives as modulators of protein kinase activity” (Sugen, Inc., priority 1998, dated 2003)
